Type in all cases: physicochemical
Data set [1] is described as follows: Absorption spectrum measured in solution (λmax, ε, slope width, solvatochromism). As for the experimental part:
For a recordable optical data storage medium according to the invention which is recorded on and read using light from a blue laser, such heterocyclic azo dyes are preferred whose absorption maximum λmax2 is in the range from 420 to 550 nm, […] half the extinction value at λmax2, and the wavelength λ1/10, at which the extinction on the short-wavelength slope of the absorption maximum of the wavelength λmax2 is a tenth of the extinction value at λmax2, are preferably in each case no further than 80 nm away from each other.
For a recordable optical data storage medium according to the invention which is recorded on and read using light from a red laser, such heterocyclic azo dyes are preferred whose absorption maximum λmax2 is in the range from 500 to 650 nm, wherein the wavelength λ1/2 at which the extinction on the long-wavelength slope of the absorption maximum of the wavelength λmax2 is half the extinction value at λmax2, and the wavelength λ1/10, at which the extinction on the long-wavelength slope of the absorption maximum of the wavelength λmax2 is a tenth of the extinction value at λmax2, are preferably in each case no further than 60 nm away from each other.
At the absorption maximum λmax2 the heterocyclic azo dyes preferably have a molar extinction coefficient E of >25000 l/mol cm, preferably >35000 l/mol cm, particularly preferably >40000 l/mol cm and very particularly preferably >50000 l/mol cm.
The absorption spectra are, for example, measured in solution.
Suitable heterocyclic azo dyes having the required spectral properties are in particular those in which the change in the dipole moment Δμ=|μg−μag|, i.e. the positive difference between the dipole moments in the ground state and the first excited state is as small as possible, i.e. preferably <5 D, and particularly preferably <2 D. One method of determining such a change in the dipole moment Δμ is described for example in F. Würthner et al., Angew. Chem. 1997, 109, 2933 and in the literature cited therein. Low solvatochromism (dioxan/DMF) is also a suitable criterion for selection. Preferred heterocyclic azo dyes are those whose solvatochromism Δλ=|λDMFλdioxan|, i.e. the positive difference between the absorption wavelengths in the solvents dimethyl formamide and dioxan is <20 nm, particularly preferably <10 nm, and very particularly preferably <5 nm.

Data set [2] is described as follows: Solubility in TFP (2,2,3,3-tetrafluoropropanol). From the text:
Solubility: >2% in TFP (2,2,3,3-tetrafluoropropanol)

The nature of data set [3]: Film formation (morphology of the dye layer). From the text: In addition to the abovementioned optical properties, the recordable information layer consisting of light-absorbing organic substances must have a morphology which is as amorphous as possible, in order to keep the noise signal during recording or reading as small as possible. For this purpose it is particularly preferable, when applying the substances by spin-coating from a solution or by vapour deposition and/or sublimation, to prevent crystallization of the light-absorbing substances during the subsequent top-coating with metallic or dielectric layers in vacuo.

With `CC(C)N(c1nnc(/N=N/c2cnc(N(C)C)s2)s1)C(C)C` [Example 1], the “λ1/2-λ1/10 (long-wave slope)” value in data set [1] (Example 1, long-wave slope) was determined as 22 nm. Further, in data set [1] (Example 1, molar extinction coefficient at λmax), the ε is 44140 L/mol/cm. The molecule further gave a λmax in data set [1] (Example 1, solvent not given) of 496 nm. Also, the “Δλ=|λDMF−λdioxan|” value in data set [1] (solvatochromism DMF vs dioxan) is 2 nm. Moreover, in data set [2], the Solubility was over 2%. In data set [3], the film result is given as “a glassy film”.
